Active and inactive are the calls of the source. The rule behind the calls is not given here.

Data set [1] can be described thus: Cytotoxicity against human MRC5 cells assessed as reduction in cell viability incubated for 72 hrs by sulforhodamine B assay. The class given is toxicity, cell-based. Background: Sulforhodamine B stains cellular protein and so reports cell mass.
For data set [2], the target named is T1, Signal transducer and activator of transcription 5A (Homo sapiens) (UniProt P42229).
T1 sequence (whole entry): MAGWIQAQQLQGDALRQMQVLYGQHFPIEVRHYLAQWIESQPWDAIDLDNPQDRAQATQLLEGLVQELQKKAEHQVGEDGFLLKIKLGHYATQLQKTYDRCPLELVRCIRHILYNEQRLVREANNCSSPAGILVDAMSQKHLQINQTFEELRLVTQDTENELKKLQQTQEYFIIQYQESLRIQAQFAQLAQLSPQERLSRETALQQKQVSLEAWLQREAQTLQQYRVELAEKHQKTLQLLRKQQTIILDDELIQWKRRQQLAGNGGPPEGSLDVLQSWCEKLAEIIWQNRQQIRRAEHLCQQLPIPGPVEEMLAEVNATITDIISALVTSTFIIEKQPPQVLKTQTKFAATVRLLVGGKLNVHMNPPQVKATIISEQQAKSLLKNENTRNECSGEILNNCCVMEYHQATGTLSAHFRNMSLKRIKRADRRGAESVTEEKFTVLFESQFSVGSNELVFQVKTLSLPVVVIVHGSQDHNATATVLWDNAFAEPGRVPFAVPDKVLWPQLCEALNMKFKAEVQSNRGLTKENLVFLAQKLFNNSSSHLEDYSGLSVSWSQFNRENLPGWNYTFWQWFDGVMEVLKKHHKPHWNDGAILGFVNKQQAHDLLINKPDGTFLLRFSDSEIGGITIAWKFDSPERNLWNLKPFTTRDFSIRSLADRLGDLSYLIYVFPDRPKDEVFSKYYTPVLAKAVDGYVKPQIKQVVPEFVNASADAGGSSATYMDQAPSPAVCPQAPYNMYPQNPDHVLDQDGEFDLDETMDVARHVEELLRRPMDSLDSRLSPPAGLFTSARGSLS
Briefly: Inhibition of STAT5 phosphorylation at Y694 residue in docetaxel-resistant human MDA-MB-231-DTR cells assessed as decrease in phosphorylated STAT5 level at 2.5 to 10 uM incubated for 24 hrs by Western blot analysis. The class given is cell-based. The following applies: dose 2.5-10 µM. A general note: Immunoblotting shows a protein as a band on a membrane.

The nature of data set [3]: Induction of cell cycle arrest in docetaxel-resistant human MDA-MB-231-DTR cells assessed as accumulation at subG1 phase at 10 uM incubated for 36 hrs by PI staining based flow cytometry analysis (reference value: 0.52%). It is filed as functional. On the technique in general: In flow cytometry, cells or beads pass a laser one at a time.

The term IC50 denotes the concentration that gives 50% inhibition. `O=C(NCCc1c[nH]c2ccccc12)c1cc2c([nH]c3ccccc32)c(C(=O)c2ccc(Br)cc2)n1`: in data set [1], the IC50 at 72 h came out at 33.2 µM. In addition, the inhibition result in data set [2] was “inactive”. In data set [3], the Activity was found to be 2.51%.

For the origin of these results see ChEMBL document CHEMBL5380808, “Design, Synthesis, and Biological Activity of Marinacarboline Analogues as STAT3 Pathway Inhibitors for Docetaxel-Resistant Triple-Negative Breast Cancer” (J Med Chem, 2023).
